The source of these data is patent publication US12172983B2, “EGFR inhibitors” (Blueprint Medicines Corporation, priority 2019, dated 2024).

The subject of assay [1] is phosphorylation of EGFR (Tyr1068) in NCI-H1975 cell line that harbors the EGFR L858R T790M mutations. Briefly: NCI-H1975 pEGFR AlphaLISA assay. In kind it is cell-based. Particulars: 4-5 hours incubation, read-out: Ext pEGFR H1975. An outline of the steps:
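Phospho-EGFR Tyr1068 AlphaLISA readout: lysates taken from compound-treated H1975 cells (L858R T790M EGFR) after a 4-5 h exposure at 37 °C. Cells had adhered overnight beforehand. IC50 derived by plotting % pEGFR inhibition against log compound concentration.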
In general terms: In Alpha technology, singlet oxygen from a donor bead excites a nearby acceptor bead.

Assay [2] concerns the target T1, EGFR (L858R T790M C797S) (Homo sapiens, UniProt P00533, C797S/L858R/T790M).
T1 construct: purchased SignalChem E10-122VG
The assay is described as follows: Biochemical EGFR inhibition assay (Caliper mobility shift), EGFR LRTMCS mutant. Conditions: inhibitory activity against EGFR LRTMCS mutant; apparent IC50; read-out: Ext Enz LRTMCS. A digest of the protocol:
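Apparent IC50s were derived by plotting percent activity against the log of compound concentration. Activity was measured as phosphopeptide electrophoretically separated from substrate, after reactions at room temperature reached 10% to 20% phosphorylation and were halted with 35 mM EDTA.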

[3] abbreviates: Homo sapiens, NCI-H1975, inhibition of phosphorylation of mutant EGFR in NCI-H1975 cells.
[4] abbreviates: inhibition of phosphorylation of mutant EGFR in NCI-H1975 cells.

pIC50: −log10 of the molar value. Like-named read-outs stand apart in the source and are kept apart here. Some results are limits rather than exact numbers.

T1 sequence (P00533 25-1210 T790M/C797S/L858R): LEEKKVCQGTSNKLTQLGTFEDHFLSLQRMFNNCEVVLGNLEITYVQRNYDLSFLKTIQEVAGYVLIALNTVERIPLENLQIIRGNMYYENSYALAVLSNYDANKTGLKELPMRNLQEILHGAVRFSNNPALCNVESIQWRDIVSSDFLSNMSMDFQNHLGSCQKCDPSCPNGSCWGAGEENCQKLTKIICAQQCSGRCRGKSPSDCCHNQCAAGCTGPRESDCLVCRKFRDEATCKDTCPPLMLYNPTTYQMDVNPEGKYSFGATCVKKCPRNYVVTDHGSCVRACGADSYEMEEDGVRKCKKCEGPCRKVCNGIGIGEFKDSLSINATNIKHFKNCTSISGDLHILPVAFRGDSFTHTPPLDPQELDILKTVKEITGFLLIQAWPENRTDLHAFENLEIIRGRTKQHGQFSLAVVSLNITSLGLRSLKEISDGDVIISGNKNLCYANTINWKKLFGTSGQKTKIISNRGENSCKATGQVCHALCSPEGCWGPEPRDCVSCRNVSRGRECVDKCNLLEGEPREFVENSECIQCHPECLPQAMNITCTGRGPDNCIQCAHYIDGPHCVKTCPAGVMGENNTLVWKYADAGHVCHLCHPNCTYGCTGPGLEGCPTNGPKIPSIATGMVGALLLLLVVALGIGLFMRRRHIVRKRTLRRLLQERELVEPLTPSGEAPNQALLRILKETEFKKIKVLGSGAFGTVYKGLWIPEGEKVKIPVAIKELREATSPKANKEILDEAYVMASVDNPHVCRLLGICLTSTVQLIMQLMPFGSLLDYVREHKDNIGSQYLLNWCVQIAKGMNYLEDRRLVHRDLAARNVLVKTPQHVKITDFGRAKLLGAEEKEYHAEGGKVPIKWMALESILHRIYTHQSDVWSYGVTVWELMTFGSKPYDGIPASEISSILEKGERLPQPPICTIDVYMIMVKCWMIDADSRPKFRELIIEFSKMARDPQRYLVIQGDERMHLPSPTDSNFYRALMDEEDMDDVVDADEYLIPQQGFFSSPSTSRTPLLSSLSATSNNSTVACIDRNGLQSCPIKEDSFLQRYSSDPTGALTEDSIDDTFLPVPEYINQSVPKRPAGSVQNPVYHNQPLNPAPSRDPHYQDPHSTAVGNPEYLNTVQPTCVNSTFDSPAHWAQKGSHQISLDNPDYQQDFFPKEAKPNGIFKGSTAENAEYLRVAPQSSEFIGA

For the molecule `COCCO[C@@H]1CCN(c2nccc(Nc3cc4c(C(C)C)ccc(N5C[C@H](CS(C)(=O)=O)[C@H]5C)c4cn3)n2)C[C@@H]1F` (single isomer, unassigned) [Compound 245], the pIC50 in assay [1] (setting [3]) was at least 8.00; in assay [2] it was at least 7.82.
`CO[C@H]1CCN(c2nccc(Nc3cc4c(C(C)C)ccc(N5CC(CS(C)(=O)=O)C5)c4cn3)n2)C[C@@H]1O` (single isomer, unassigned) [Compound 54, (3R,4R)-1-[4-({8-[3-(methanesulfonylmethyl)azetidin-1-yl]-5-(propan-2-yl)isoquinolin-3-yl}amino)pyrimidin-2-yl]-4-methoxypiperidin-3-ol or (3S,4S)-1-[4-({8-[3-(methanesulfonylmethyl)azetidin-1-yl]-5-(propan-2-yl)isoquinolin-3-yl}amino)pyrimidin-2-yl]-4-methoxypiperidin-3-ol]: the values for the pIC50 in assay [1] (setting [4]) and in assay [2] were 7.30 to 7.52 and at least 7.82, respectively.
Turning to `CO[C@@H]1CCN(c2nccc(Nc3cc4c(C(C)C)ccc(N5C[C@H](CS(C)(=O)=O)[C@H]5C)c4cn3)n2)C[C@@H]1O` (single isomer, unassigned) [Compound 93, (3S,4R)-1-(4-(5-isopropyl-8-((2R,3S)-2-methyl-3-(methylsulfonylmethyl)azetidin-1-yl)isoquinolin-3-ylamino)pyrimidin-2-yl)-4-methoxypiperidin-3-ol or (3R,4S)-1-(4-(5-isopropyl-8-((2R,3S)-2-methyl-3-(methylsulfonylmethyl)azetidin-1-yl)isoquinolin-3-ylamino)pyrimidin-2-yl)-4-methoxypiperidin-3-ol], the pIC50 in assay [1] (setting [3]) is at least 8.00; in assay [2], at least 7.82.
The like results for `COCCO[C@H]1CCN(c2nccc(Nc3cc4c(F)ccc(N5C[C@H](CS(C)(=O)=O)[C@H]5C)c4cn3)n2)C[C@H]1F` (single isomer, unassigned) [Compound 216] were, in that order, 7.70 to 8.00 and at least 7.82.
The like results for `COC1(CO)CCN(c2nccc(Nc3cc4c(C(C)C)ccc(N5C[C@H](CS(C)(=O)=O)[C@H]5C)c4cn3)n2)CC1` [Compound 175, {1-[4-({8-[(2R,3S)-3-(methanesulfonylmethyl)-2-methylazetidin-1-yl]-5-(propan-2-yl)isoquinolin-3-yl}amino)pyrimidin-2-yl]-4-methoxypiperidin-4-yl}methanol] were, in that order, at least 8.00 and at least 7.82.
Turning to `CO[C@H]1CCN(c2nccc(Nc3cc4c(C(C)C)cnc(N5CC(C[S@@](C)(=N)=O)[C@H]5C)c4cn3)n2)C[C@H]1F` (single isomer, unassigned) [Compound 108, (1S)-(((2R)-1-(6-((2-((3R,4S)-3-fluoro-4-methoxypiperidin-1-yl)pyrimidin-4-yl)amino)-4-isopropyl-2,7-naphthyridin-1-yl)-2-methylazetidin-3-yl)methyl)(imino)(methyl)-λ^6-sulfanone or (1R)-(((2R)-1-(6-((2-((3R,4S)-3-fluoro-4-methoxypiperidin-1-yl)pyrimidin-4-yl)amino)-4-isopropyl-2,7-naphthyridin-1-yl)-2-methylazetidin-3-yl)methyl)(imino)(methyl)-λ^6-sulfanone], the pIC50 was at least 8.00 in assay [1] (setting [4]) and at least 7.82 in assay [2].
For the molecule `CCS(=O)(=O)CC1CN(c2ccc(C(C)C)c3cc(Nc4ccnc(N5C[C@@H](O)[C@@H](OC)C(F)(F)C5)n4)ncc23)C1` (single isomer, unassigned) [Compound 294, (3R,4R)-1-{4-[(8-{3-[(ethanesulfonyl)methyl]azetidin-1-yl}-5-(propan-2-yl)isoquinolin-3-yl)amino]pyrimidin-2-yl}-5,5-difluoro-4-methoxypiperidin-3-ol or (3S,4S)-1-{4-[(8-{3-[(ethanesulfonyl)methyl]azetidin-1-yl}-5-(propan-2-yl)isoquinolin-3-yl)amino]pyrimidin-2-yl}-5,5-difluoro-4-methoxypiperidin-3-ol], the pIC50 was at least 8.00 in assay [1] (setting [3]) and 7.52 to 7.70 in assay [2].
